Reference: ChEMBL document CHEMBL1201862, “PubChem BioAssay data set” (2004)
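Compound exposure: 48 hours, 5 concentrations, 96-well plates. GI50: concentration for 50% inhibition of growth.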 The source made the active and inactive calls. Cut-off read from the data, not from the text of the source: active = GI50 up to about 1.1 µM and inactive = higher.

Key:
Assay in all cases: NCI tumour cell line growth inhibition, 48 h
UACC-257 = system: UACC-257
SNB-75 = system: SNB-75
SF-295 = system: SF-295
MCF7 = system: MCF7
SNB-19 = system: SNB-19
RPMI-8226 = system: RPMI-8226
COLO 205 = system: COLO 205
SF-268 = system: SF-268
K562 = system: K562
Hs-578T = system: Hs-578T
SN12C = system: SN12C
MDA-N = system: MDA-N
OVCAR-8 = system: OVCAR-8
HL-60 = system: HL-60
T47D = system: T47D
NCI-H23 = system: NCI-H23
NCI-H460 = system: NCI-H460
PC-3 = system: PC-3
M14 = system: M14
786-0 = system: 786-0
MOLT-4 = system: MOLT-4
LOX IMVI = system: LOX IMVI
SR = system: SR
MDA-MB-231 = system: MDA-MB-231
A549 = system: A549
UACC-62 = system: UACC-62
SK-OV-3 = system: SK-OV-3
HOP-92 = system: HOP-92
UO-31 = system: UO-31
SK-MEL-28 = system: SK-MEL-28
NCI/ADR-RES = system: NCI/ADR-RES
HCT-116 = system: HCT-116
MDA-MB-435 = system: MDA-MB-435
BT-549 = system: BT-549
NCI-H226 = system: NCI-H226
SF-539 = system: SF-539
DU-145 = system: DU-145
SK-MEL-5 = system: SK-MEL-5
A498 = system: A498
CAKI-1 = system: CAKI-1
SW-620 = system: SW-620
ACHN = system: ACHN
HCC 2998 = system: HCC 2998
SK-MEL-2 = system: SK-MEL-2
RXF 393 = system: RXF 393
OVCAR-3 = system: OVCAR-3
HCT-15 = system: HCT-15
CCRF-CEM = system: CCRF-CEM
HT-29 = system: HT-29
OVCAR-4 = system: OVCAR-4
OVCAR-5 = system: OVCAR-5
U-251 = system: U-251
KM12 = system: KM12
IGROV-1 = system: IGROV-1
EKVX = system: EKVX
Malme-3M = system: Malme-3M
NCI-H522 = system: NCI-H522
TK-10 = system: TK-10
HOP-62 = system: HOP-62

Measured: GI50

COC(=O)C(CCCCN)NC(=O)C(CCCCN)NC(=O)C(CCCCN)NC(C)=O.Cc1ccc(C(=O)Nc2ccc(S(=O)(=O)O)c3cc(S(=O)(=O)O)cc(S(=O)(=O)O)c23)cc1NC(=O)c1cccc(NC(=O)Nc2cccc(C(=O)Nc3cc(C(=O)Nc4ccc(S(=O)(=O)O)c5cc(S(=O)(=O)O)cc(S(=O)(=O)O)c45)ccc3C)c2)c1
18.6 µM: HCT-15
inactive: UACC-257 > 50 µM | SNB-75 10.7 µM | SF-295 > 50 µM | MCF7 > 50 µM | SNB-19 > 50 µM | RPMI-8226 > 50 µM | COLO 205 > 50 µM | SF-268 43 µM | K562 > 50 µM | Hs-578T > 50 µM | SN12C > 50 µM | MDA-N > 50 µM | OVCAR-8 > 50 µM | HL-60 > 50 µM | T47D > 50 µM | NCI-H23 > 50 µM | NCI-H460 48.9 µM | PC-3 > 50 µM | M14 > 50 µM | 786-0 > 50 µM | MOLT-4 > 50 µM | LOX IMVI > 50 µM | SR > 50 µM | MDA-MB-231 > 50 µM | A549 > 50 µM | UACC-62 > 50 µM | SK-OV-3 > 50 µM | HOP-92 > 50 µM | UO-31 > 50 µM | SK-MEL-28 > 50 µM | NCI/ADR-RES > 50 µM | HCT-116 > 50 µM | MDA-MB-435 > 50 µM | BT-549 > 50 µM | NCI-H226 17.7 µM | SF-539 > 50 µM | DU-145 > 50 µM | SK-MEL-5 > 50 µM | A498 > 50 µM | CAKI-1 > 50 µM | SW-620 > 50 µM | ACHN > 50 µM | HCC 2998 > 50 µM | SK-MEL-2 > 50 µM | RXF 393 > 50 µM | OVCAR-3 > 50 µM | CCRF-CEM > 50 µM | HT-29 > 50 µM | OVCAR-4 11.3 µM | OVCAR-5 > 50 µM | U-251 > 50 µM | KM12 > 50 µM

Cn1cc2c(=O)n3ncn(-c4ccc(Br)cc4)c3nc2n1
> 100 µM: HCT-15
inactive: UACC-257 > 100 µM | SNB-75 > 100 µM | SF-295 > 100 µM | MCF7 > 100 µM | SNB-19 > 100 µM | RPMI-8226 > 100 µM | COLO 205 > 100 µM | SF-268 > 100 µM | K562 > 100 µM | Hs-578T > 100 µM | SN12C > 100 µM | MDA-N > 100 µM | OVCAR-8 > 100 µM | HL-60 > 100 µM | T47D > 100 µM | NCI-H23 > 100 µM | NCI-H460 > 100 µM | PC-3 > 100 µM | M14 > 100 µM | 786-0 > 100 µM | MOLT-4 > 100 µM | SR > 100 µM | MDA-MB-231 > 100 µM | IGROV-1 > 100 µM | A549 > 100 µM | UACC-62 > 100 µM | SK-OV-3 > 100 µM | HOP-92 > 100 µM | UO-31 > 100 µM | EKVX > 100 µM | Malme-3M > 100 µM | SK-MEL-28 > 100 µM | NCI/ADR-RES > 100 µM | HCT-116 > 100 µM | MDA-MB-435 > 100 µM | BT-549 > 100 µM | NCI-H226 > 100 µM | SF-539 > 100 µM | NCI-H522 > 100 µM | DU-145 > 100 µM | SK-MEL-5 87.9 µM | A498 > 100 µM | CAKI-1 > 100 µM | SW-620 > 100 µM | ACHN > 100 µM | HCC 2998 > 100 µM | SK-MEL-2 > 100 µM | RXF 393 > 100 µM | OVCAR-3 > 100 µM | TK-10 > 100 µM | CCRF-CEM > 100 µM | HT-29 > 100 µM | OVCAR-4 > 100 µM | OVCAR-5 > 100 µM | U-251 > 100 µM | KM12 > 100 µM

CC[C@@H](/C=C\CCC(=O)C[C@H](O)CCC=C(C)C)O[Si](C(C)C)(C(C)C)C(C)C
> 100 µM: HCT-15
inactive: UACC-257 85.1 µM | SNB-75 > 100 µM | SF-295 > 100 µM | MCF7 79.4 µM | SNB-19 > 100 µM | RPMI-8226 57.3 µM | COLO 205 71.6 µM | SF-268 > 100 µM | K562 54.5 µM | Hs-578T > 100 µM | SN12C > 100 µM | MDA-N 88.9 µM | OVCAR-8 > 100 µM | HL-60 46 µM | T47D 55.5 µM | NCI-H23 > 100 µM | NCI-H460 > 100 µM | PC-3 75.5 µM | M14 > 100 µM | 786-0 > 100 µM | MOLT-4 > 100 µM | LOX IMVI 90.8 µM | SR 39.4 µM | HOP-62 > 100 µM | MDA-MB-231 > 100 µM | IGROV-1 > 100 µM | A549 73.3 µM | UACC-62 > 100 µM | SK-OV-3 > 100 µM | HOP-92 81.7 µM | UO-31 > 100 µM | EKVX > 100 µM | SK-MEL-28 > 100 µM | NCI/ADR-RES > 100 µM | HCT-116 > 100 µM | MDA-MB-435 > 100 µM | BT-549 > 100 µM | NCI-H226 > 100 µM | SF-539 > 100 µM | NCI-H522 48.6 µM | DU-145 > 100 µM | SK-MEL-5 69 µM | A498 > 100 µM | CAKI-1 > 100 µM | SW-620 > 100 µM | ACHN > 100 µM | HCC 2998 > 100 µM | SK-MEL-2 42.9 µM | RXF 393 83.9 µM | OVCAR-3 > 100 µM | TK-10 > 100 µM | CCRF-CEM 80.4 µM | HT-29 52.6 µM | OVCAR-4 > 100 µM | OVCAR-5 > 100 µM | U-251 > 100 µM | KM12 > 100 µM
